According to paper PMC10672332, “Lecanicilliums A–F, Thiodiketopiperazine-Class Alkaloids from a Mangrove Sediment-Derived Fungus Lecanicillium kalimantanense” (Marine Drugs, 2023):
Converted amounts (≈) assume the structure as drawn. Where two headings read alike, the source gives them in different places.

Key:
[1] = Cytotoxicity, CCK-8 method; format: cell-based; details: human
Method: (§1) Cytotoxic activity was evaluated using the human lung adenocarcinoma cell line H1975 and human hepatocellular carcinoma cell line HepG-2, using the CCK-8 method as described in our previous study. Briefly, each of the test compounds was dissolved in DMSO and further diluted to give final concentrations of 80, 40, 20, 10, 5, 2.5, and 1.25 μM, respectively. H1975 cells or HepG-2 cells (5 × 10^3 […]) were seeded in 96-well plates and treated with compounds at the indicated concentration for 24 hours and then 10 μL CCK-8 reagent was added to each well. The plates were incubated at 37 °C for another 4 hours. Finally, the optical density was measured at a wavelength of 450 nm with a Bio-Rad microplate reader. Dose–response curves were generated, and the IC50 values were calculated from the linear portion of log dose–response curves.

[2] = test system: Staphylococcus aureus ATCC 6538; assay: Antibacterial assay, micro broth dilution; format: cell-based; details: read-out: Antibacterial Activity (MIC) S. aureus
Method: (§2) The micro broth dilution method was used to evaluate the antibacterial activities of compounds 1–19 against the growth of eight common pathogens: Bacillus subtilis BS01, Micrococcus luteus, Escherichia coli ATCC 25922, Staphylococcus aureus ATCC 6538, S. aureus MRSA, Streptococcus agalactiae ATCC 13813, S. iniae, and Pseudomonas aeruginosa ATCC 9027 in 96-well polystyrene plates. Vancomycin and ciprofloxacin were used as positive controls. Briefly, wells containing 100 μL bacteria dilutions (OD600 = 0.01) in Luria–Bertani (LB) medium were supplemented with different concentrations of 1–19 (80, 40, 20, 10, 5, 2.5, 1.25, and 0.625 μg/mL), vancomycin, and ciprofloxacin (40, 20, 10, 5, 2.5, 1.25, 0.625, and 0.3125 μg/mL), respectively. The MICs were determined after 24 hours’ incubation at 37 °C with the tested compounds.

Micrococcus luteus [3] = assay: Antibacterial assay, micro broth dilution; format: cell-based; details: read-out: Antibacterial Activity (MIC) M. luteus
Method: as §2

S. aureus MRSA = assay: Antibacterial assay, micro broth dilution; format: cell-based; details: Staphylococcus aureus, read-out: Antibacterial Activity (MIC) MRSA
Method: as §2

S. iniae = assay: Antibacterial assay, micro broth dilution; format: cell-based; details: Streptococcus iniae, read-out: Antibacterial Activity (MIC) S. iniae
Method: as §2

[4] = test system: Streptococcus agalactiae ATCC 13813; assay: Antibacterial assay, micro broth dilution; format: cell-based; details: read-out: Antibacterial Activity (MIC) S. agalactiae
Method: as §2

Bacillus subtilis BS01 = assay: Antibacterial assay, micro broth dilution; format: cell-based; details: read-out: Antibacterial Activity (MIC) B. subtilis
Method: as §2

[5] = test system: Escherichia coli ATCC 25922; assay: Antibacterial assay, micro broth dilution; format: cell-based; details: read-out: Antibacterial Activity (MIC) E. coli
Method: as §2

[6] = test system: Pseudomonas aeruginosa ATCC 9027; assay: Antibacterial assay, micro broth dilution; format: cell-based; details: read-out: Antibacterial Activity (MIC) P. aeruginosa
Method: as §2

[7] = Cytotoxicity, CCK-8 method; format: cell-based; details: human; remark: listed apart in the source
Method: as §1

brine shrimps = assay: Brine shrimp lethality bioassay; format: in vivo; details: Table 3
Excerpt: The methods were the same as those used in our previous studies.

[8] = Antibacterial assays, summary in text over several pathogens; format: cell-based; details: read-out: MIC values against four pathogens
Method: as §2

Micrococcus luteus [9] = test system: Micrococcus luteus; design: method as in PMID 25574740; details: cited from earlier work
[10] = test system: human ovarian cancer cells; details: read-out: IC50 against human ovarian cancer cells; cited from earlier work
Staphylococcus aureus = details: cited from earlier work
[11] = ATCC6538, micro broth dilution, LB medium, 24 hours at 37 °C
[12] = micro broth dilution, LB medium, 24 hours at 37 °C
[13] = ATCC13813, micro broth dilution, LB medium, 24 hours at 37 °C
[14] = BS01, micro broth dilution, LB medium, 24 hours at 37 °C
[15] = ATCC25922, micro broth dilution, LB medium, 24 hours at 37 °C
[16] = ATCC9027, micro broth dilution, LB medium, 24 hours at 37 °C
[17] = HepG-2 cells, CCK-8, 24 hours treatment, read-out: Cytotoxicity (IC50) against HepG-2
[18] = H1975 cells, CCK-8, 24 hours treatment, read-out: Cytotoxicity (IC50) against H1975

Structure (SMILES) | IC50 at 24 h [1] [µM] | MIC [2, 11] [µg/mL] | MIC (Micrococcus luteus [3]; [12]) [µg/mL] | MIC (S. aureus MRSA; [12]) [µg/mL] | MIC (S. iniae; [12]) [µg/mL] | MIC [4, 13] [µg/mL] | MIC (Bacillus subtilis BS01; [14]) [µg/mL] | MIC [5, 15] [µg/mL] | MIC [6, 16] [µg/mL] | IC50 at 24 h [7] [µM] | Toxicity (TC50) Brine Shrimp (brine shrimps) [µg/mL] | also measured
CSS[C@@]12CC3=COC=C[C@H](OC(C)=O)[C@H]3N1C(=O)[C@]1(SC)CC3=COC=C[C@H](OC(C)=O)[C@H]3N1C2=O [Compound 5, Lecanicillium E] | > 80 | > 80 | 40 (≈ 70.6 µM) | > 80 | 15 (≈ 26.5 µM) | 25 (≈ 44.1 µM) | 10 (≈ 17.6 µM) | 80 (≈ 141 µM) | > 80 | 16.3 | 40 | MIC [8]: 10 to 40 µg/mL (≈ 17.6 to 70.6 µM)
CS[C@@]12CC3=COC=C[C@H](O)[C@H]3N1C(=O)[C@]1(SC)CC3=COC=C[C@H](O)[C@H]3N1C2=O [Compound 9, bisdethiobis(methylsulfanyl)deacetylaranotin] | > 80 | > 80 | > 80 | > 80 | > 80 | > 80 | > 80 | > 80 | > 80 | > 80 | >80 | 
CS[C@@]12CC3=COC=C[C@H](OC(C)=O)[C@H]3N1C(=O)[C@]1(SC)CC3=COC=C[C@H](O)[C@H]3N1C2=O [Compound 10, bisdethiobis(methylsulfanyl)-aranotin] | > 80 | > 80 | > 80 | > 80 | > 80 | > 80 | > 80 | > 80 | > 80 | > 80 | >80 | 
CS[C@@]12CC3=CC=C[C@H](OC(C)=O)[C@H]3N1C(=O)[C@]1(SC)CC3=COC=C[C@H](O)[C@H]3N1C2=O [Compound 11, 8-acetyl-bisdethiobis(methylsulfanyl)apoaranotin] | > 80 | > 80 | > 80 | > 80 | 50 (≈ 105 µM) | > 80 | 60 (≈ 126 µM) | > 80 | > 80 | 69.3 | >80 | 
CS[C@@]12CC3=CC=C[C@H](OC(C)=O)[C@H]3N1C(=O)[C@]1(SC)CC3=COC=C[C@H](OC(C)=O)[C@H]3N1C2=O [Compound 12, bisdethiobis(methylsulfanyl)acetylapoaranotin] | > 80 | > 80 | 50 (≈ 96.4 µM) | > 80 | > 80 | 50 (≈ 96.4 µM) | > 80 | > 80 | > 80 | > 80 | 50 | 
CS[C@@]12CC3=CC=C[C@H](O)[C@H]3N1C(=O)[C@]1(SC)CC3=COC=C[C@H](O)[C@H]3N1C2=O [Compound 14, bisdethiobis(methylsulfanyl)deacetylapoaranotin] | > 80 | > 80 | > 80 | > 80 | 40 (≈ 92.1 µM) | > 80 | > 80 | > 80 | > 80 | > 80 | >80 | 
CS[C@@]12CC3=CC=C[C@H](OC(C)=O)[C@H]3N1C(=O)[C@]1(SC)CC3=CC=C[C@H](OC(C)=O)[C@H]3N1C2=O [Compound 15, haematocin] |  |  |  |  |  |  |  |  |  |  | >80 | IC50 at 24 h [1, 17]: > 80 µM; MIC ([2]; ATCC6538, 24 h): > 80 µg/mL; MIC (Micrococcus luteus [3]; 24 h): > 80 µg/mL; MIC (S. aureus MRSA; 24 h): > 80 µg/mL; MIC (S. iniae; 24 h): > 80 µg/mL; MIC ([4]; ATCC13813, 24 h): > 80 µg/mL; MIC (Bacillus subtilis BS01; BS01, 24 h): 80 µg/mL (≈ 159 µM); MIC ([5]; ATCC25922, 24 h): > 80 µg/mL; MIC ([6]; ATCC9027, 24 h): > 80 µg/mL; IC50 at 24 h [7, 18]: > 80 µM
CS[C@@]1(Cc2ccccc2)NC(=O)[C@]2(SC)CC3=COC=C[C@H](O)[C@H]3N2C1=O [Compound 18, emestrin H] |  |  |  |  |  |  |  |  |  |  | >80 | IC50 at 24 h [1, 17]: 41.2 µM; MIC ([2]; ATCC6538, 24 h): > 80 µg/mL; MIC (Micrococcus luteus [3]; 24 h): > 80 µg/mL; MIC (S. aureus MRSA; 24 h): > 80 µg/mL; MIC (S. iniae; 24 h): 40 µg/mL (≈ 95.6 µM); MIC ([4]; ATCC13813, 24 h): > 80 µg/mL; MIC (Bacillus subtilis BS01; BS01, 24 h): 80 µg/mL (≈ 191 µM); MIC ([5]; ATCC25922, 24 h): > 80 µg/mL; MIC ([6]; ATCC9027, 24 h): > 80 µg/mL; IC50 at 24 h [7, 18]: 50.6 µM
CS[C@@]12C[C@H]3[C@@H]([C@@H](O)C=C[C@@H]3O)N1C(=O)[C@]1(SC)C[C@H]3[C@@H]([C@@H](O)C=C[C@@H]3O)N1C2=O [Penicibrocazine C] |  |  |  |  |  |  |  |  |  |  |  | MIC against Micrococcus luteus (Micrococcus luteus [9]): 0.25 µg/mL (≈ 0.55 µM)
O=C1N2[C@H]3C(=CC=C[C@@H]3O)C[C@]23SS[C@]12C[C@H]1[C@@H]([C@@H](O)C=C[C@@H]1O)N2C3=O [brocazine G] |  |  |  |  |  |  |  |  |  |  |  | IC50 [10]: 660 nM; MIC against Staphylococcus aureus (Staphylococcus aureus): 0.25 µg/mL (≈ 0.615 µM)
O=C(N[C@H](CO)[C@H](O)c1ccc([N+](=O)[O-])cc1)C(Cl)Cl [chloromycetin] |  |  |  |  |  |  |  |  |  |  |  | MIC against Micrococcus luteus (Micrococcus luteus [9]): 2.0 µg/mL (≈ 6.19 µM)
